According to patent US20160015725A1, “METHODS OF CONTROLLING TUMOR BIOENERGETICS NETWORKS” (THE WISTAR INSTITUTE OF ANATOMY AND BIOLOGY, priority 2012, published 2016):

Key:
[1] = system: multiple tumor cell types; assay: ATP production in tumor cells (luciferin-luciferase); format: cell-based, human
Description: (§1) Intracellular ATP concentrations were measured by the luciferin—luciferase method using an ATP measuring kit (Biochain). The ATP concentration in each extract was measured with a microplate luminometer (Beckman Coulter) against standard ATP solutions used as reference. In some experiments, PC3 or LN229 cells were preincubated with sodium pyruvate for 7 h in the presence of vehicle or Gamitrinib before determination of ATP production.

LN229 cells [2] = assay: Glucose utilization; format: cell-based, human; conditions: tumor cells
Description: (§2) Glucose concentrations in cell culture media were determined using a Glucose kit (Sigma-Aldrich). Briefly, 2×10^6 cells were seeded in 10 cm2 tissue culture dishes for 48 h, mixed with DMEM in the presence of Gamitrinib or 17-AAG (0-20 μM) for additional 4 h, and 200 μl aliquots of culture medium were incubated with 1 ml assay mixture, containing 1.5 mM NAD, 1 mM ATP, 1.0 U/ml Hexokinase, and 1.0 U/ml G6PDH. The glucose concentration under the various conditions was determined by measuring the amount of reduced NAD to NADH by G6PDH, and quantified spectrophotometrically at 340 nm wavelength. Extracellular lactate was measured by a colorometric assay kit (Abcam). Culture media from LN229 cells was replaced with DMEM containing vehicle (DMSO) or Gamitrinib (5 μM) for 5 h. Changes in lactate concentrations were measured by analysis of lactate-dependent conversion of NADP to NADPH in the presence of excess lactate dehydrogenase (LDH), and quantified by absorbance at 450 nm. All assays were performed at 25° C. under conditions of linear lactate-limited NADPH formation.

LN229 cells [3] = assay: Extracellular lactate; format: cell-based, human; conditions: tumor cells
Description: as §2

hexokinase-II (HK-II) = assay: Subcellular fractionation and Western blotting of hexokinases; format: cell-based, human; conditions: LN229, 5 h
Description: Mitochondrial fractions were isolated from Gamitrinib treated LN229 cells (0-20 μM for 5 h) using an ApoAlert™ cell fractionation kit (CLONTECH). Briefly, LN229 cells were mechanically disrupted by 60 strokes with a Dounce homogenizer in isolation buffer containing 1 mM DTT plus protease inhibitor cocktail. Cell debris was removed by centrifugation at 700 g for 10 min. The supernatant was further centrifuged at 10,000 g for 25 min, and supernantants or mitochondrial pellets were processed for further analysis.
(§3) For Western blotting, protein lysates were prepared from the different cell types in RIPA Buffer (150 mM NaCl, 1.0% Triton X-100, 0.5% sodium deoxycholate, 0.1% SDS, 50 mM Tris, pH 8.0) containing EDTA-free Protease Inhibitor Cocktail (Roche) and Phosphatase Inhibitor Cocktail 2 and 3 (Sigma Aldrich). Equal amounts of protein lysates were separated by SDS gel electrophoresis, transferred to PVDF membranes and incubated with primary antibodies of various specificities. Protein bands were detected by chemiluminescence.

hexokinase = assay: Hexokinase activity in mitochondrial fractions of treated cells; format: cell-based, human; conditions: LN229 mitochondrial fractions, 5 h
Description: HK activity in LN229 cells was measured as the total glucosephosphorylating activity using a standard G6PDH-coupled assay kit (BioVision). Mitochondria isolated from Gamitrinib- or 17-AAG-treated LN229 cells, or cultures transfected with various siRNAs were homogenized in cold PBS, followed by centrifugation at 1000 g for 10 min at 4° C. HK activity was determined by analysis of G6P-dependent conversion of NADP to NADPH in the presence of excess […] in the presence of 2 mM glucose, and quantification of absorbance at 450 nm. All assays were performed at 25° C. under conditions of linear HK-limited NADPH formation.

CypD = assay: Mitochondrial protein folding (detergent solubility); format: cell-based, human; conditions: increasing CHAPS concentrations
Description: Mitochondrial protein folding assays were performed as described (Moisoi et al., 2009). Briefly, mitochondrial fractions were isolated from vehicle- or Gamitrinib-treated LN229 cells (5 μM for 12 h) and suspended in equal volume of mitochondrial fractionation buffer containing increasing concentrations of CHAPS (0, 0.05, 0.1, 0.2, 0.5, 1 or 2%). Samples were incubated for 20 min on ice and detergent-insoluble protein aggregates were isolated by centrifugation (20,000 g) for 20 min. Pellets were processed for further analysis.

[4] = system: FF2508 or MRC5 primary human fibroblasts; assay: AMPK activation in normal fibroblasts; format: cell-based
Description: as §3

NIH3T3 fibroblasts = assay: ATP production and AMPK/mTORC1 phosphorylation in non-transformed cells; format: cell-based
Description: as §3, §1

tumor cells = assay: ER UPR markers (Western blotting, Xbp1 splicing, RT-qPCR); format: cell-based, human
[5] = system: V600E mutant BRAF melanoma cells; assay: AMPK and autophagy signaling in mutant BRAF melanoma cells; format: cell-based, human
Text: (§4) Human glioblastoma LN229, prostate adenocarcinoma PC3 or LNCaP cells, or normal NIH3T3 fibroblasts were obtained from the American Tissue Culture Collection (ATCC, Manassas, Va.), and maintained in culture according to the supplier's specifications. The following wild type (WT) BRAF N-Ras mutant melanoma cells WM852 and WM1366, and melanoma cells carrying a V600E activating mutation in the BRAF oncogene, 451Lu, Me11617 and WM983B were used in this study. WT or CypD knockout Mouse Embryonic Fibroblasts (MEFs, CypD−/−) were characterized earlier 40. In some experiments, CypD−/− MEFs were stably transfected with control plasmid, WT CypD or peptidyl prolyl isomerase (PPIase)-deficient H168Q CypD mutant cDNA, and analyzed for differential recruitment of HK-II to mitochondrial or cytosolic fractions.
as §3
(§5) Samples were imaged using a Leica TCS SP2 confocal microscope. For determination of autophagy, cells under the various conditions tested were harvested after 12 h, and analyzed with an antibody to […] (LC3) by Western blotting.

WT BRAF melanoma cells = assay: AMPK and autophagy signaling in WT BRAF melanoma cells; format: cell-based, human
Text: as §4, §3, §5

[6] = system: BRAF V600E melanoma cells; assay: Melanoma cell viability by MTT, BRAF V600E; format: cell-based, human
Description: Various cell types were seeded in triplicate onto 96-well plates at 4×10^3 cells/well, treated with vehicle, Gamitrinib or 17-AAG (0-20 μM) for 12 h, and analyzed for changes in metabolic activity by an MTT assay. For determination of apoptosis, LN229 cells ([…]) were labeled for annexin V and propidium iodide (PI) (BD Biosciences), and analyzed by multiparametric flow cytometry (BD).

## CO[C@H]1/C=C\C=C(/C)C(=O)NC2=CC(=O)C(NCCCCCC[P+](c3ccccc3)(c3ccccc3)c3ccccc3)=C(C[C@@H](C)C[C@H](OC)[C@H](O)[C@@H](C)/C=C(\C)[C@@H]1OC(N)=O)C2=O [Gamitrinib]
[1]; multiple tumor cell types
  time to inhibition of ATP production: ≤ 5 h
[1]; tumor cell types, non-cytotoxic concentrations, 5 h
  ATP production: concentration-dependent inhibition of ATP production
LN229 cells [2]
  glucose utilization: reduced glucose utilization
LN229 cells [3]
  extracellular lactate levels: reduced
hexokinase-II (HK-II)
  HK-II localization (mitochondria vs cytosol): concentration-dependent release of hexokinase-II (HKII) from mitochondria
hexokinase
  hexokinase activity: a decrease in hexokinase activity
CypD
  COX-IV solubility: indistinguishable in control or Gamitrinib-treated cells
CypD; vs untreated cultures
  CypD solubility: caused CypD to remain insoluble over a broad range of detergent concentrations
[4]
  AMPK activation: did not activate AMPK
NIH3T3 fibroblasts
  ATP production, AMPK or mTORC1 phosphorylation: did not affect ATP production, or AMPK or mTORC1 phosphorylation
Tumor cells; Gamitrinib combined with 2-DG
  Grp78, CHOP or C/EBPβ expression, combined with 2-DG: translational suppression of Grp78, CHOP or C/EBPβ
Tumor cells; quantitative PCR
  mRNA expression of CHOP, C/EBPβ and Grp78: time-dependent upregulation of ER UPR markers, CHOP, C/EBPβ and Grp78
Tumor cells; tumor cells
  C/EBPβ and CHOP expression: induction of transcription factors, CCAAT-enhancer binding protein (C/EBPβ) and C/EBP homology protein (CHOP)
  Grp78 expression: upregulation of the ER chaperone, Grp78
  Xbp1 mRNA splicing: de novo mRNA splicing, i.e. activation, of its target, X-Box Protein-1, Xbp1
  eIF2α phosphorylation: transient phosphorylation of PERK-regulated eIF2α
  time to induction of ER UPR: ≤ 1 h
Tumor cells; within 1 h
  IRE-1 expression: increased expression of Inositol-Requiring-1 (IRE-1) kinase
[5]; BRAF mutant cells
  autophagy: did not adaptively increase autophagy
[5]; BRAF mutant melanoma cells
  AMPK activation: failed to activate AMPK
WT BRAF melanoma cells; WT BRAF cells
  autophagy: stimulated autophagy
WT BRAF melanoma cells; WT BRAF melanoma cells
  AMPK phosphorylation: induced AMPK phosphorylation
[6]
  IC50: 1.95 ± 0.21 µM
